Results: paper PMC5062470, “The mGluR2 positive allosteric modulator, SAR218645, improves memory and attention deficits in translational models of cognitive symptoms associated with schizophrenia” (Scientific Reports, 2016)

Key:
[1] = tested on: mice; design: method as in earlier work; conditions: wide dose-range; cited from earlier work
[2] = tested on: Sprague-Dawley rats; assay: DOI-induced glutamate release in the medial prefrontal cortex (microdialysis); type: in vivo
Procedure: Male Sprague-Dawley rats (320–350 g) were housed two per cage. Two days before the dialysis assay, they were anesthetized with chloral hydrate (400 mg/kg, ip, 10 ml/kg of body weight) and placed in a stereotaxic apparatus (David Kopf Instruments, Tujunga, CA, USA). Anesthesia was maintained throughout surgery as necessary with supplementary doses of chloral hydrate. Body temperature was monitored by a rectal probe and adjusted (37 ± 1 °C) by a homeothermic blanket. The skull and the dura were opened to allow the implantation of a guide cannula in the medial prefrontal cortex (PFC). The coordinates were […] to bregma, […] to the midline and […] the dural surface. A dental cement cap held the cannula in place, and three screws anchored the cap to the skull. The rats were individually housed post-surgery and allowed two days of recovery before the start of the experiment. On the day of the experiment, animals were placed in a microdialysis bowl, the cannula cap was removed, and a […] (CMA12, Carnegie Medicine AB, Stockholm, Sweden) was inserted into the guide cannula. The probe was perfused at a constant flow rate of 1 μl/min using a microinjection pump (CMA100; Carnegie Medicine AB) with a gassed Ringer’s solution containing (in mM): NaCl (145), KCl (2.7), CaCl2 (1.2), MgCl2 (1), Na2HPO4 (2.3), […]; pH 7.4. Microdialysis sampling started 120 min after probe placement into the PFC. The outlet of the probe was connected to an on-line derivatization system allowing direct analysis of dialysate samples collected every 15 min. […] CE experiments were performed on a P/ACE MDQ capillary electrophoresis system (Beckman Coulter, Villepinte, France) coupled to an external Zetalif fluorescence detector (Picometrics S.A., Toulouse, France). […] The emission intensity was measured at a wavelength of 490 nm. […] Dose-effect of SAR218645 was evaluated by comparing the area under the curve during the first 150 min after po injection of the drug or vehicle. […]

[3] = tested on: DAT−/− mice; assay: Spontaneous locomotor hyperactivity of transgenic mice; type: in vivo
Procedure: (§1) An actimeter device consisting of a cylinder (20 cm diameter, 9.5 cm height, Apelex, France) equipped with two perpendicular light beams located 1.5 cm above the floor was used. Mice from the transgenic batches (DAT^−/− and NMDA Nr1^neo−/−) were orally pretreated with either SAR218645 or vehicle and individually isolated in boxes for a period of 60 min. Animals were then placed in the actimeter device and locomotor activity (number of interrupted light beams) was recorded for a period of 30 or 60 min. Mice in which the expression of the dopamine transporter (DAT) was knocked out (i.e., the DAT^−/− mouse) have been proposed as a reliable model of the positive symptoms of schizophrenia. In these mice, dopamine levels in the synapse are dramatically elevated and these animals are hyperactive and agitated in behavioral tests. NMDA Nr1^neo−/− mice express only 5 to 10% of normal levels of the NR1 subunit of the NMDA receptor[33], thus mimicking a hypo-glutamatergic state. […] As such, they have been proposed as an animal model of schizophrenia. […] As such, in our present experiments, a relatively moderate dose of amphetamine (2 mg/kg ip) or MK-801 (0.2 mg/kg, ip) was used to selectively induce similar hyperactivity, with no noticeable appearance of stereotyped behaviors in normal mice. For amphetamine or MK-801 antagonism experiments, male Swiss mice (20–30 g) were orally pretreated with SAR218645, haloperidol or vehicle, immediately individually isolated in a Plexiglas box, followed 30 min later by administration of vehicle, amphetamine or MK-801. Immediately following amphetamine challenge, 30 min after MK-801 challenge, mice were placed in the actimeter devices and locomotor activity was recorded for a period of 30 (DAT^−/−) or 60 (NMDA Nr1^neo−/−) min.
(§2) Statistical analyses were performed using SAS V8.2 software (SAS Institute, Cary, NC, USA). The number of light beam breaks (motility count) recorded for 30 or 60 min were analyzed using one-way ANOVAs using a fixed factor of challenge or genotype and complementary post hoc (Newman-Keuls) tests were performed. Five to nine animals per group were used.

[4] = tested on: NMDA Nr1neo−/− mice; assay: as above; type: in vivo
Procedure: as §1, §2

[5] = tested on: Sprague-Dawley rats; assay: Catalepsy test; type: in vivo; conditions: 30, po
Procedure: Male Sprague-Dawley rats weighing 225–234 g were used. Each animal was placed such that their forepaws rested on a wooden dowel (1 × 18 cm) mounted horizontally 9 cm from the floor and 4 cm from one end of a white translucent plastic box (26 × 20 × 15 cm). The amount of time each rat spent with at least one forepaw on the bar was determined, for a maximum period of 540 s. This procedure was repeated three times. White noise was used during the acclimation and test periods to minimize the effects of outside noises. SAR218645 was administered alone at a dose of 30 mg/kg po. Haloperidol (1 mg/kg ip) was used alone and in co-administration with SAR218645 (1, 3, and 10 mg/kg, po). Statistics consisted of using a one-way ANOVA, followed by a post-hoc Dunnett’s test for individual comparisons. Ten animals per group were used.

[6] = molecular target: T1, human mGluR7 (Homo sapiens, UniProt Q14831); assay: Multispan Allosteric Profiling panel, Ca2+ (Gqi5); type: cell-based
T1 construct: host or cells: HEK293 co-expressing Gqi5
T1 sequence (Q14831 35-915): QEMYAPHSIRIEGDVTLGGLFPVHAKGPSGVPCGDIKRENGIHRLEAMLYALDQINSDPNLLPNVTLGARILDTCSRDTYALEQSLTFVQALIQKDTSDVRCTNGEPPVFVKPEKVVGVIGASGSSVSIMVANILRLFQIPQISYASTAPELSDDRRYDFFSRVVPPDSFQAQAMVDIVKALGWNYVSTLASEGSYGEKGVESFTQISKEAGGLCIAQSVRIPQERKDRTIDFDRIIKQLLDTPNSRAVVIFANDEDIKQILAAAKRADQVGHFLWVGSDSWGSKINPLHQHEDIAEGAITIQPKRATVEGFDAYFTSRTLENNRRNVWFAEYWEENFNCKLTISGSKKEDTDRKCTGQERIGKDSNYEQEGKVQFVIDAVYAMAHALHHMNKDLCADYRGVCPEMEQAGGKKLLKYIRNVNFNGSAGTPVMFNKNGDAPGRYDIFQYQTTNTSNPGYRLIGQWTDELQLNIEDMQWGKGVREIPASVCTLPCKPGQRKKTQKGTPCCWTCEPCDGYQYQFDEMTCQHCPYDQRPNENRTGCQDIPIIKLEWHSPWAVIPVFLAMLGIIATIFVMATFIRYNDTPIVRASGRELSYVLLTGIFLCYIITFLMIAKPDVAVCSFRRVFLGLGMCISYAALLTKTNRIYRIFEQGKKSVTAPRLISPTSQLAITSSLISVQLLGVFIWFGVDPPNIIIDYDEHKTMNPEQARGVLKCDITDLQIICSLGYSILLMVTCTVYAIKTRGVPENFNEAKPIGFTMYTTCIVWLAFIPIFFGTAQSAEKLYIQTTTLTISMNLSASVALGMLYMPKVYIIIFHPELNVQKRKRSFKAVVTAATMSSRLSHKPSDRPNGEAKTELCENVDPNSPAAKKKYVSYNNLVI

For `CC1(C)CCc2cc(OC[C@@H]3Cn4ccc(=O)nc4O3)ccc21` [SAR218645, (S)-2-(1,1-dimethyl-indan-5-yloxymethyl)-2,3-dihydro-oxazolo[3,2-a]pyrimidin-7-one], the “effect on the ability of haloperidol and risperidone to alleviate psychostimulant-induced hyperactivity” value [1] is listed as “did not alter”, the “effect on DOI-induced increase in extracellular glutamate (time-course)” value ([2]; 3 mg/kg po, 30 min before DOI 2.5 mg/kg sc) is listed as “blocked significantly” and the “effect on glutamate AUC during 150 min” value ([2]; 30 mg/kg po, P < 0.05) is listed as “reaching statistical significance”. The Minimal active dose ([2]; dose-range 0.3–30, po, Sprague-Dawley rats) was 3 mg/kg, the “effect on locomotor activity” value ([3]; DAT−/− mice, SAR218645 po) was “no effects” and the Minimal active dose ([3]; dose-range 3–10, po) was over 10 mg/kg. The “effect on locomotor activity” value ([4]; NMDA Nr1neo−/− mice, SAR218645 po) was “no effects”, the Minimal active dose ([4]; dose-range 1–10, po) was over 10 mg/kg and the Minimal active dose [5] was over 30 mg/kg. For the same molecule, the “effect on glutamate-induced activation” value ([6]; 10 μM SAR218645) was “no effect” and the “calcium response to compound alone” value ([6]; SAR218645 alone) was “did not elicit a calcium response”.
